ChEMBL document CHEMBL1128376, “Carbethoxylating agents as inhibitors of aldehyde dehydrogenase” (J Med Chem, 1995)

Tested on: aldehyde dehydrogenase (Saccharomyces cerevisiae); call rule not given here
Assay: In vitro inhibition against yeast aldehyde dehydrogenase; IA means In active

## CCOC=O [ETHOXYCARBONYL GROUP]
  IC50: Not Active
